{
  "source": "patent US20110257202A1",
  "about": "“Therapeutic Compositions and Methods for Treating Chronic Kidney Disease Associated with a Metabolic Imbalance” (priority 2008, published 2011)",
  "key": {"[1]": {"test_system": "wild type diabetic (DM) mice", "assay": "Blood pressure in wild type diabetic mice", "type": "in vivo", "source_text": "(§1) FIG. 1 represents a graph showing that ACE inhibitors are effective in lowering blood pressure in wild type diabetic (DM) mice. Shown in FIG. 1 is the effect of no treatment (No TX), the ACE inhibitor enalapril (DM enalapril), and the ARB telmisartan (DM telmisartan).\nas §1, with “is” for “represents”, “telmisartan). […] These are considered early changes of diabetic nephropathy.” for “telmisartan).”"}, "[2]": {"test_system": "wild type diabetic (DM) mice", "assay": "Renal histology (early diabetic nephropathy) in wild type diabetic mice", "type": "in vivo", "source_text": "These are considered early changes of diabetic nephropathy.\n(§2) FIG. 4 ACE inhibitors and ARBs are not effective at preventing diabetic nephropathy in eNOSKO mice. DM caused mesangial expansion in DM eNOSKO mice (B), which was not prevented by enalapril (C) or telmisartan (D). […] Bar: 20 μm. […] Bar: 20 μm. White bar=no treatment; Black bar=enalapril; Gray bar=telmisartan. Data are shown as means and\nas §1, with “is” for “represents”, “telmisartan). […] These are considered early changes of diabetic nephropathy.” for “telmisartan).”\n(§3) DM caused mesangial expansion in DM eNOSKO mice (b), which was not prevented by enalapril (c) or telmisartan (d). […] Bar: 20 μm. […] Bar: 20 μm. White bar=no treatment; Black bar=enalapril; Gray bar=telmisartan. FIG. 5 pertains to a table that provides results of the effect of ACE inhibitors and ARBs on blood pressure and renal function in diabetic nephropathy in eNOSKO mice. ACE inhibitors and ARBs are effective at lowering blood pressure and proteinuria in wild type diabetic mice, and are also effective at lowering blood pressure in nondiabetic eNOSKO mice."}, "DM eNOSKO mice [3]": {"test_system": "DM eNOSKO mice", "assay": "Blood pressure in diabetic eNOSKO mice", "type": "in vivo", "conditions": "diabetic mice lacking endothelial nitric oxide synthesis; 50 mg/kg"}, "DM eNOSKO mice [4]": {"test_system": "DM eNOSKO mice", "assay": "Renal histology (diabetic nephropathy) in diabetic eNOSKO mice", "type": "in vivo", "source_text": "It has been shown that when diabetes is induced in these mice with streptozotocin, that they develop all aspects of human diabetic nephropathy, including clinical manifestations (nephrotic proteinuria, progressive renal failure and early mortality), histologic manifestations (including mesangial expansion, nodules and mesangiolysis, podocyte abnormalities, vascular lesions, tubulointerstitial disease) and molecular changes (increases in TGF-β and VEGF expression). To the inventors' knowledge this is also the first diabetic model that develops both retinopathy and nephropathy spontaneously.\nas §2\nFIG. 7 is an immunohistograph of a kidney of a Diabetic eNOSKO mouse showing an increase in aldosterone in its glomeruli. Diabetes was induced with streptozotocin in eNOSKO mice, which were treated with enalapril (10 mg/kg BW/day; black bar) or telmisartan (2 mg/kg BW/day; gray bar) for 4 weeks (from at 6 weeks to 10 weeks)\nas §3"}, "mitochondria": {"test_system": "mitochondria", "assay": "Mitochondrial loss in response to oxidative stress"}, "eNOSKO mice": {"test_system": "eNOSKO mice", "conditions": "4 weeks, 50 mg/l drinking water", "protocol": "Since nitrite is a metabolite of NO, and can be converted to NO in the body (reviewed in ^28), sodium nitrite was tested to see if it could prevent hypertension in eNOSKO mice."}, "[5]": {"test_system": "human aortic endothelial cells", "assay": "Oxidative stress (DCF-DA fluorescence) in endothelial cells", "type": "cell-based", "conditions": "12 mg/dl", "protocol": "The green fluorescence is a measure of a marker for oxidative stress using the peroxide-sensitive probe 2′7′-dichlorofluorescein diacetate (DCF-DA) dye (FIG. 9A). On the right is the quantitation of oxidative stress, with control in open bar, uric acid (12 mg/dl) in the black bar, and uric acid with apocynin (an inhibitor of NADPH oxidase-induced oxidants) in the right bar (FIG. 9B)."}, "[6]": {"test_system": "human aortic endothelial cells", "assay": "ATP levels in endothelial cells", "type": "cell-based", "conditions": "3.5, 7 and 12 mg/dl, 48 hours", "protocol": "Uric acid (3.5 mg/dl, 7 mg/dl and 12 mg/dl) was included in the media for 48 hours.\n(§4) One of the key mechanisms by which uric acid acts to cause endothelial dysfunction is to cause a loss of mitochondria and mitochondria DNA, resulting in depletion of ATP stores necessary for endothelial function (FIGS. 11 and 12)."}, "[7]": {"test_system": "human aortic endothelial cells", "assay": "Mitochondria number (Mitotracker Orange) in endothelial cells", "type": "cell-based", "conditions": "12 mg/dl, 48 hours", "protocol": "Mitochondria numbers were measured with Mitotracker Orange in control cells (FIG. 12A) and UA treated cells (FIG. 12B). Shown in FIG. 12C is the quantified effect of uric acid 12 mg/dl on mitochondria density at 48 hours.\nas §4"}, "[8]": {"test_system": "human aortic endothelial cells", "assay": "Cell viability (trypan blue exclusion)", "type": "cell-based", "conditions": "48 hours"}, "[9]": {"test_system": "porcine aortic endothelial cells", "conditions": "various doses, from Khosla et al; cited from earlier work"}, "DM eNOSKO mice [10]": {"test_system": "DM eNOSKO mice", "conditions": "diabetic eNOS-deficient mice; reference 21; cited from earlier work"}},
  "note": "“Also recorded” adds a separate entry of the source.",
  "data": [
    {"compound": "CCOC(=O)[C@H](CCc1ccccc1)N[C@@H](C)C(=O)N1CCC[C@H]1C(=O)O", "note": "[enalapril]", "values": [
      {"measurement": "blood pressure (BP)", "setting": "[1]", "value": "can significantly lower blood pressure"},
      {"measurement": "glomerular type IV collagen deposition", "setting": "[2]", "value": "improve"},
      {"measurement": "mesangial expansion", "setting": "[2]", "value": "improve mesangial expansion; also recorded: beneficial effect"},
      {"measurement": "BP", "setting": "DM eNOSKO mice [3]", "value": "did not lower BP"},
      {"measurement": "advanced lesions (mesangiolysis with glomerular capillary microaneurysms, augmented deposition of extracellular matrix)", "setting": "DM eNOSKO mice [4]", "value": "Neither enalapril (g) nor telmisartan (h) treatment prevented these advanced lesions"},
      {"measurement": "mesangial expansion", "setting": "DM eNOSKO mice [4]", "value": "not prevented"}
    ]},
    {"compound": "O=C(NCCO[N+](=O)[O-])c1cccnc1", "note": "[nicorandil]", "values": [
      {"measurement": "mitochondrial loss", "setting": "mitochondria", "value": "can prevent mitochondrial loss"}
    ]},
    {"compound": "O=NO", "note": "[sodium nitrite]", "values": [
      {"measurement": "blood pressure", "setting": "eNOSKO mice", "value": "reduced blood pressure in eNOSKO mice similar to that observed in wild type mice"}
    ]},
    {"compound": "CCCc1nc2c(C)cc(-c3nc4ccccc4n3C)cc2n1Cc1ccc(-c2ccccc2C(=O)O)cc1", "note": "[telmisartan]", "values": [
      {"measurement": "blood pressure (BP)", "setting": "[1]", "value": "can significantly lower blood pressure"},
      {"measurement": "glomerular type IV collagen deposition", "setting": "[2]", "value": "improve"},
      {"measurement": "mesangial expansion", "setting": "[2]", "value": "improve mesangial expansion; also recorded: beneficial effect"},
      {"measurement": "advanced lesions (mesangiolysis with glomerular capillary microaneurysms, augmented deposition of extracellular matrix)", "setting": "DM eNOSKO mice [4]", "value": "Neither enalapril (g) nor telmisartan (h) treatment prevented these advanced lesions"},
      {"measurement": "mesangial expansion", "setting": "DM eNOSKO mice [4]", "value": "not prevented"}
    ]},
    {"compound": "O=c1[nH]c(=O)c2[nH]c(=O)[nH]c2[nH]1", "note": "[uric acid]", "values": [
      {"measurement": "oxidative stress (DCF-DA)", "setting": "[5]", "value": "causes oxidative stress"},
      {"measurement": "ATP levels", "setting": "[6]", "value": "reduces ATP levels"},
      {"measurement": "mitochondria number", "setting": "[7]", "value": "reduces mitochondria number"},
      {"measurement": "cell viability", "setting": "[8]; 12 mg/dl", "value": "No effects on cell viability"},
      {"measurement": "cell viability (trypan blue exclusion)", "setting": "[8]; 3.5, 7 and 12 mg/dl", "value": "No alterations in cell viability"},
      {"measurement": "endothelial NO levels (fluorescence of DAF)", "setting": "[9]", "value": "causes a reduction in endothelial NO levels"}
    ]},
    {"compound": "insulin", "values": [
      {"measurement": "renal disease", "setting": "DM eNOSKO mice [10]", "value": "can be prevented"}
    ]}
  ]
}
